Data taken from ChEMBL document CHEMBL5375989, “Pioneering 4,11-Dioxo-4,11-dihydro-1H-anthra[2,3-d]imidazol-3-ium Compounds as Promising Survivin Inhibitors by Targeting ILF3/NF110 for Cancer Therapy” (J Med Chem, 2023).

Legend:
[1] = test system: A549; experiment: Inhibition of colony formation in human A549 cells assessed as suppression of colony formation at 5 nM replaced with fresh medium for every 72 hrs and measured for 15 days by crystal violet staining based assay relative to control; format: functional; conditions: A549, 360 h, time 15 day
[2] = Toxicity in BALB/c mouse assessed as morphological changes in kidney at 2 to 4 mg/kg by H and E staining based analysis; format: organism-based; conditions: in vivo, dose 2-4 mg/kg
[3] = test system: HeLa; experiment: Antiproliferative activity against human HeLa cells assessed as inhibition of cell growth measured after 48 hrs by MTT assay; format: functional, cell-based; conditions: hela
[4] = Toxicity in BALB/c mouse assessed as morphological changes in spleen at 2 to 4 mg/kg by H and E staining based analysis; format: organism-based; conditions: in vivo, dose 2-4 mg/kg
[5] = Toxicity in BALB/c nude mouse assessed as dermatitis at 4 mg/kg, sc administered every 2 days for 14 days; format: organism-based; conditions: in vivo, 336 h, time 14 day
[6] = test system: A549; experiment: Induction of apoptosis in human A549 cells assessed as viable cells at 0.1 uM measured after 48 hrs by annexin V and PI staining based flow cytometry analysis (reference value: 93.3%); format: functional; conditions: Homo sapiens, A549, 48 h, read-out: Activity
[7] = test system: PANC-1; experiment: Antiproliferative activity against human PANC-1 cells assessed as inhibition of cell growth measured after 48 hrs by MTT assay; format: functional, cell-based; conditions: panc-1
[8] = test system: A549; experiment: Induction of apoptosis in human A549 cells assessed as early apoptotic cells at 0.25 uM measured after 48 hrs by annexin V and PI staining based flow cytometry analysis (reference value: 0.71%); format: functional
[9] = test system: A549; experiment: Induction of apoptosis in human A549 cells assessed as necrotic cells at 0.04 uM measured after 48 hrs by annexin V and PI staining based flow cytometry analysis (reference value: 1.47%); format: functional
[10] = test system: A549; experiment: Induction of apoptosis in human A549 cells assessed as viable cells at 0.25 uM measured after 48 hrs by annexin V and PI staining based flow cytometry analysis (reference value: 93.3%); format: functional; conditions: Homo sapiens, A549, 48 h, read-out: Activity
[11] = Toxicity in BALB/c nude mouse assessed as dermatitis at 2 mg/kg, sc administered every 2 days for 14 days; format: organism-based; conditions: in vivo, 336 h, time 14 day
[12] = test system: BXPC-3; experiment: Antiproliferative activity against human BXPC-3 cells assessed as inhibition of cell growth measured after 48 hrs by MTT assay; format: functional, cell-based; conditions: bxpc-3
[13] = test system: 143B; experiment: Antiproliferative activity against human 143B cells assessed as inhibition of cell growth measured after 48 hrs by MTT assay; format: functional, cell-based; conditions: 143b
[14] = test system: A549; experiment: Induction of apoptosis in human A549 cells assessed as early apoptotic cells at 0.04 uM measured after 48 hrs by annexin V and PI staining based flow cytometry analysis (reference value: 0.71%); format: functional
[15] = test system: A549; experiment: Antiproliferative activity against human A549 cells assessed as inhibition of cell growth measured after 48 hrs in presence of scramble siRNA by MTT assay; format: functional, cell-based; conditions: A549, 48 h
[16] = test system: 5637; experiment: cells; conditions: Homo sapiens, 5637, 48 h
Description: Antiproliferative activity against human 5637 cells assessed as inhibition of cell growth measured after 48 hrs by MTT assay

[17] = test system: A549; experiment: Induction of apoptosis in human A549 cells assessed as late apoptotic cells at 0.1 uM measured after 48 hrs by annexin V and PI staining based flow cytometry analysis (reference value: 4.70%); format: functional
[18] = test system: ASPC1; experiment: Antiproliferative activity against human ASPC1 cells assessed as inhibition of cell growth measured after 48 hrs by MTT assay; format: functional, cell-based; conditions: aspc1
[19] = test system: NCI-H460; experiment: Antiproliferative activity against human NCI-H460 cells assessed as inhibition of cell growth measured after 48 hrs by MTT assay; format: functional, cell-based; conditions: nci-h460
[20] = test system: A549; experiment: Induction of cell cycle arrest in human A549 cells assessed as accumulation of cells at G0/G1 phase at 0.1 uM incubated for 48 hrs by PI staining based flow cytometry analysis (reference value: 63.26%); format: functional
[21] = test system: TE-1; experiment: cells; conditions: Homo sapiens, TE-1, 48 h
Description: Antiproliferative activity against human TE-1 cells assessed as inhibition of cell growth measured after 48 hrs by MTT assay

[22] = Drug metabolism in BALB/C nude mouse kidney xenografted with human A549 cells at 2 mg/kg measured after 2 to 6 hrs by UPLC-3Q analysis; format: ADME, organism-based; conditions: in vivo, time 2-6 hrs
[23] = target: T1, Interleukin enhancer-binding factor 3 (Homo sapiens, UniProt Q12906); experiment: Binding affinity to ILF3 (unknown origin) assessed as dissociation constant at upto 1 uM by SPR method
T1 sequence (Q12906 whole entry): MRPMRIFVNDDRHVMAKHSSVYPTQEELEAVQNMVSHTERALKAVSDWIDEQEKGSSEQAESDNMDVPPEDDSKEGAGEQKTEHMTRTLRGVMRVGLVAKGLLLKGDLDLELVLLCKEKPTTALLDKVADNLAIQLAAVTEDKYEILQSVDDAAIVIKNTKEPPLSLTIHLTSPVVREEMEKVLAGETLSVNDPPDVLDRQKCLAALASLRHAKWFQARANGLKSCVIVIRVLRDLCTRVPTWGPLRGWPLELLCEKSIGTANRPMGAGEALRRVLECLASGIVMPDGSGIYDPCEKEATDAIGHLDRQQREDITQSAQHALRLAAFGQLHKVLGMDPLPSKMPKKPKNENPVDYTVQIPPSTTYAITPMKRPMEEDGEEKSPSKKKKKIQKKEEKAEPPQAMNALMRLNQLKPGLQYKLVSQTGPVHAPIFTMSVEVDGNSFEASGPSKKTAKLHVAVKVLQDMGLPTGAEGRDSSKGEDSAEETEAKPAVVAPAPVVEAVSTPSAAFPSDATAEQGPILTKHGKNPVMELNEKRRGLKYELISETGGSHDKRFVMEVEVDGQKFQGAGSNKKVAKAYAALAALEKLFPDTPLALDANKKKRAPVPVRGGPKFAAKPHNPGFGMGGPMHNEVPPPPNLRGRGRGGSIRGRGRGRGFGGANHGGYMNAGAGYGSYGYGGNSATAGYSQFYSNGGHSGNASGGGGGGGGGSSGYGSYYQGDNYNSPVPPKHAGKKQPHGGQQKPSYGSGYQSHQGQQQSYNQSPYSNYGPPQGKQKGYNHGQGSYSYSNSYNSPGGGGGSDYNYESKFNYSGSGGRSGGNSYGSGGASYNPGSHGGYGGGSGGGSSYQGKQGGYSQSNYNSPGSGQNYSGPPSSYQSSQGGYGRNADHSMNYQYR

[24] = test system: NCI-H1299; experiment: Antiproliferative activity against human NCI-H1299 cells assessed as inhibition of cell growth measured after 48 hrs by MTT assay; format: functional, cell-based; conditions: nci-h1299
[25] = test system: A549; experiment: Induction of apoptosis in human A549 cells assessed as viable cells at 0.04 uM measured after 48 hrs by annexin V and PI staining based flow cytometry analysis (reference value: 93.3%); format: functional; conditions: Homo sapiens, A549, 48 h, read-out: Activity
[26] = Toxicity in BALB/c mouse assessed as morphological changes in lung at 2 to 4 mg/kg by H and E staining based analysis; format: organism-based; conditions: in vivo, dose 2-4 mg/kg
[27] = Toxicity in BALB/c mouse assessed as morphological changes in liver at 2 to 4 mg/kg by H and E staining based analysis; format: organism-based; conditions: in vivo, dose 2-4 mg/kg
[28] = test system: A549; experiment: Induction of apoptosis in human A549 cells assessed as late apoptotic cells at 0.04 uM measured after 48 hrs by annexin V and PI staining based flow cytometry analysis (reference value: 4.70%); format: functional

SMILES: Cn1c[n+](C)c2c1C(=O)c1cc3ccccc3cc1C2=O.[I-]
- inhibition at 0.005 µM [1]: 100%
- Activity [2]: Non-Toxic
- IC50 [3]: 1160 nM
- Activity [4]: Non-Toxic
- Activity [5]: Non-Toxic
- viability at 0.1 µM [6]: 8.7%
- IC50 [7]: 80 nM
- Activity [8]: 2.37%
- Activity [9]: 4.74%
- viability at 0.25 µM [10]: 3.28%
- Activity [11]: Non-Toxic
- IC50 [12]: 70 nM
- IC50 [13]: 590 nM
- Activity [14]: 6.08%
- IC50 [15]: 9 nM
- IC50 [16]: 180 nM
- Activity [17]: 81.9%
- IC50 [18]: 250 nM
- IC50 [19]: 140 nM
- Activity [20]: 85.37%
- IC50 [21]: 50 nM
- Drug metabolism [22]: Metabolite_Detected
- Kd [23]: 163 nM
- IC50 [24]: 510 nM
- viability at 0.04 µM [25]: 27.8%
- Activity [26]: Non-Toxic
- Activity [27]: Non-Toxic
- Activity [28]: 61.4%
